Measured values as given in PubChem BioAssay AID330 (DTP/NCI, 2004).
Values joined by “and” are separate entries in the source; they are usually repeats but may differ in a detail not shown here. Equal entries are not always repeated. Inconclusive results and toxic doses are left out. Rule for the calls: active = survival T/C of 150% or more; inactive = T/C below 125% in these data.

Test system: P388 leukemia ip, CD2F1 mice, survival T/C
Assay: NCI In Vivo Anticancer Drug Screen. Data for tumor model P388 Leukemia (intraperitoneal) in CD2F1 (CDF1) mice
Conditions: endpoint: median survival time, higher = longer survival
Method in brief: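 Mice carrying the transplanted tumor received test compound or vehicle. Survival was recorded in each group, and the value is the treated-group measurement divided by that of the vehicle-treated control group.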

[1] = dose: 50.0 mg/kg/injection, schedule: Q01DX005 (ip), vehicle: saline with Tween-80
[2] = dose: 100.0 mg/kg/injection, schedule: Q01DX005 (ip), vehicle: saline with Tween-80
[3] = dose: 100.0 mg/kg/injection, schedule: Q04DX003 (ip), vehicle: Klucel (hydroxypropylcellulose) (HPC)
[4] = dose: 200.0 mg/kg/injection, schedule: Q04DX003 (ip), vehicle: Klucel (hydroxypropylcellulose) (HPC)
[5] = dose: 400.0 mg/kg/injection, schedule: Q04DX003 (ip), vehicle: Klucel (hydroxypropylcellulose) (HPC)
[6] = dose: 50.0 mg/kg/injection, schedule: Q01DX009 (ip), vehicle: saline with Tween-80
[7] = dose: 100.0 mg/kg/injection, schedule: Q01DX009 (ip), vehicle: saline with Tween-80
[8] = dose: 200.0 mg/kg/injection, schedule: Q01DX009 (ip), vehicle: saline with Tween-80
[9] = dose: 12.5 mg/kg/injection, schedule: Q01DX009 (ip), vehicle: saline with Tween-80
[10] = dose: 25.0 mg/kg/injection, schedule: Q01DX009 (ip), vehicle: saline with Tween-80
[11] = dose: 100.0 mg/kg/injection, schedule: Q01DX001 (ip), vehicle: saline with Tween-80
[12] = dose: 200.0 mg/kg/injection, schedule: Q01DX001 (ip), vehicle: saline with Tween-80
[13] = dose: 400.0 mg/kg/injection, schedule: Q01DX001 (ip), vehicle: saline with Tween-80
[14] = dose: 100.0 mg/kg/injection, schedule: Q04DX002 (ip), vehicle: saline

Measured: T/C

CC1(C)N=C(N)N=C(N)N1c1cccc(CNc2ccc(S(N)(=O)=O)cc2)c1
inactive: dose: 7.5 mg/kg/injection, schedule: Q01DX005 (ip), vehicle: Klucel (hydroxypropylcellulose) (HPC) 102 % of control | dose: 15.0 mg/kg/injection, schedule: Q01DX005 (ip), vehicle: Klucel (hydroxypropylcellulose) (HPC) 100 % of control | dose: 30.0 mg/kg/injection, schedule: Q01DX005 (ip), vehicle: Klucel (hydroxypropylcellulose) (HPC) 102 % of control

CCOc1nc(N)nc(C)c1N=Nc1cccc([N+](=O)[O-])c1
inactive: dose: 60.0 mg/kg/injection, schedule: Q01DX005 (ip), vehicle: Klucel (hydroxypropylcellulose) (HPC) 100 % of control | dose: 120.0 mg/kg/injection, schedule: Q01DX005 (ip), vehicle: Klucel (hydroxypropylcellulose) (HPC) 94 % of control | dose: 240.0 mg/kg/injection, schedule: Q01DX005 (ip), vehicle: Klucel (hydroxypropylcellulose) (HPC) 103 % of control

Nc1ncnc2c1c(-c1ccccc1)cn2-c1ccc(I)cc1
inactive: dose: 60.0 mg/kg/injection, schedule: Q01DX005 (ip), vehicle: saline with Tween-80 103 % of control | dose: 120.0 mg/kg/injection, schedule: Q01DX005 (ip), vehicle: saline with Tween-80 100 % of control | dose: 240.0 mg/kg/injection, schedule: Q01DX005 (ip), vehicle: saline with Tween-80 96 % of control

O=C(CCCl)Nc1c(Cl)cccc1Cl
inactive: [1] 96 % of control | [2] 99 % of control | dose: 200.0 mg/kg/injection, schedule: Q01DX005 (ip), vehicle: saline with Tween-80 96 % of control

COC(=O)/C=C/COc1ccccc1C(=O)NCc1ccc([N+](=O)[O-])cc1
inactive: [3] 109 % of control | [4] 108 % of control | [5] 109 % of control

CN(C)C1=C(N(C)C)C1N(C)C
inactive: dose: 10.0 mg/kg/injection, schedule: Q04DX003 (ip), vehicle: saline 100 % of control | dose: 20.0 mg/kg/injection, schedule: Q04DX003 (ip), vehicle: saline 97 % of control | dose: 40.0 mg/kg/injection, schedule: Q04DX003 (ip), vehicle: saline 101 % of control

[O-]/[N+](=C\c1ccccc1)CCO
inactive: [6] 97 % of control | [7] 101 % of control | [8] 106 % of control

O=C(O)CN(CC(=O)O)Cc1cc2c(c(O)c1O)C(=O)c1ccccc1C2=O
inactive: dose: 6.25 mg/kg/injection, schedule: Q01DX009 (ip), vehicle: saline with Tween-80 97 % of control | [9] 101 % of control | [10] 93 % of control | [7] 100 % of control | [8] 100 % of control

O=C(CC(O)c1ccccc1)Sc1ccccc1 (configuration not stated)
inactive: dose: 25.0 mg/kg/injection, schedule: Q04DX003 (ip), vehicle: Klucel (hydroxypropylcellulose) (HPC) 100 % of control | dose: 50.0 mg/kg/injection, schedule: Q04DX003 (ip), vehicle: Klucel (hydroxypropylcellulose) (HPC) 100 % of control | [3] 95 % of control

Cc1ccc(S(=O)(=O)NC(=O)n2ccnc2C)cc1
inactive: dose: 50.0 mg/kg/injection, schedule: Q01DX005 (ip), vehicle: Klucel (hydroxypropylcellulose) (HPC) 97 % of control | dose: 100.0 mg/kg/injection, schedule: Q01DX005 (ip), vehicle: Klucel (hydroxypropylcellulose) (HPC) 100 % of control | dose: 200.0 mg/kg/injection, schedule: Q01DX005 (ip), vehicle: Klucel (hydroxypropylcellulose) (HPC) 104 % of control

C=CCC(N)C(=O)O (configuration not stated)
inactive: dose: 50.0 mg/kg/injection, schedule: Q01DX005 (ip), vehicle: saline 103 % of control | dose: 100.0 mg/kg/injection, schedule: Q01DX005 (ip), vehicle: saline 97 % of control

NCc1c(O)ccc2ccccc12
inactive: [6] 105 % of control | [7] 107 % of control | [8] 108 % of control

O=[N+]([O-])c1ccc(N/N=C(/C(=N/Nc2ccc([N+](=O)[O-])cc2)c2ccccc2)c2ccccc2)cc1
inactive: dose: 25.0 mg/kg/injection, schedule: Q01DX009 (ip), vehicle: other 87 % of control | dose: 50.0 mg/kg/injection, schedule: Q01DX009 (ip), vehicle: other 89 % of control | dose: 100.0 mg/kg/injection, schedule: Q01DX009 (ip), vehicle: other 93 % of control | dose: 100.0 mg/kg/injection, schedule: Q01DX009 (ip), vehicle: saline sonified 90 % of control | dose: 200.0 mg/kg/injection, schedule: Q01DX009 (ip), vehicle: other 93 % of control | dose: 200.0 mg/kg/injection, schedule: Q01DX009 (ip), vehicle: saline sonified 86 % of control | dose: 400.0 mg/kg/injection, schedule: Q01DX009 (ip), vehicle: other 93 % of control | dose: 400.0 mg/kg/injection, schedule: Q01DX009 (ip), vehicle: saline sonified 90 % of control

O=C(O)C1C(C(=O)O)C2(Cl)C(Cl)=C(Cl)C1(Cl)C2(Cl)Cl.[Fe] (configuration not stated)
inactive: dose: 6.25 mg/kg/injection, schedule: Q01DX001 (ip), vehicle: saline with Tween-80 100 % of control | dose: 12.5 mg/kg/injection, schedule: Q01DX001 (ip), vehicle: saline with Tween-80 104 % of control | dose: 25.0 mg/kg/injection, schedule: Q01DX001 (ip), vehicle: saline with Tween-80 109 % of control

O=c1c(Cl)c2oc3ccc([N+](=O)[O-])cc3nc-2c(Cl)c1Cl
inactive: [6] 109 % of control | [7] 107 % of control

CCCCOC(=O)/C=C(\Br)C(=O)OCCCC
inactive: [6] 114 % of control | [7] 124 % of control

O=N[O-].O=N[O-].O=N[O-].[Co+3].[NH-]CC[N-]CC[NH-]
inactive: [9] 95 % of control | [10] 104 % of control | [6] 114 % of control

CC(=O)OC1COC(n2nnc3c(=O)[nH]cnc32)C(OC(C)=O)C1OC(C)=O (configuration not stated)
inactive: [11] 103 % of control | [12] 103 % of control | [13] 103 % of control

Cc1[nH]n(-c2ccccc2)c(=O)c1N=Nc1cccc(C(F)(F)F)c1
inactive: [14] 92 % of control | dose: 200.0 mg/kg/injection, schedule: Q04DX002 (ip), vehicle: saline 99 % of control | dose: 400.0 mg/kg/injection, schedule: Q04DX002 (ip), vehicle: saline 100 % of control

Nc1[nH]nc(Nc2cccc(Cl)c2Cl)c1C(=O)c1cccs1
inactive: [9] 101 % of control | [10] 99 % of control | [6] 99 % of control and 100 % of control | [7] 96 % of control | [8] 98 % of control

NC(=O)C(Br)(Br)C(=O)c1nc(N)nc(N)n1
inactive: [1] 107 % of control | [2] 99 % of control

C=C=CCN(C)Cc1ccccc1
inactive: dose: 25.0 mg/kg/injection, schedule: Q04DX002 (ip), vehicle: saline 106 % of control | dose: 50.0 mg/kg/injection, schedule: Q04DX002 (ip), vehicle: saline 93 % of control | [14] 100 % of control and 101 % of control

CN(C)c1nc(OC2C(C3COC(C)(C)O3)OC3OC(C)(C)OC32)nc(N(C)C)n1 (configuration not stated)
inactive: dose: 100.0 mg/kg/injection, schedule: Q04DX003 (ip), vehicle: saline with Tween-80 99 % of control | dose: 200.0 mg/kg/injection, schedule: Q04DX003 (ip), vehicle: saline with Tween-80 100 % of control | dose: 400.0 mg/kg/injection, schedule: Q04DX003 (ip), vehicle: saline with Tween-80 100 % of control

COC(OC)C(C(=O)c1ccc(OCc2ccccc2)cc1O)c1cc2c(cc1OCc1ccccc1)OCO2 (configuration not stated)
inactive: [3] 96 % of control | [4] 101 % of control | [5] 98 % of control

CC(C)(C)N=C(CC(=NC(C)(C)C)Nc1ccccc1Cl)Nc1ccccc1Cl
inactive: [6] 91 % of control | [7] 92 % of control | [8] 86 % of control

CCCCCCCC/C=C\CCCCCCCC(=O)OC
inactive: dose: 177.0 mg/kg/injection, schedule: Q01DX009 (ip), vehicle: saline with Tween-80 109 % of control | dose: 266.0 mg/kg/injection, schedule: Q01DX009 (ip), vehicle: saline with Tween-80 116 % of control | dose: 400.0 mg/kg/injection, schedule: Q01DX009 (ip), vehicle: saline with Tween-80 106 % of control | dose: 600.0 mg/kg/injection, schedule: Q01DX009 (ip), vehicle: saline with Tween-80 107 % of control

Cc1c([N+](=O)[O-])c(=O)oc2c(C)c3occc(=O)c3cc12
inactive: [11] 89 % of control | [12] 90 % of control | [13] 86 % of control

Cc1ccc(S(=O)(=O)NC(=O)Nc2sc(=S)c3c(c2C#N)CCCC3)cc1
inactive: [1] 100 % of control | [2] 103 % of control

CC(C)(OC(=O)NC(Cc1cnc[nH]1)C(=O)O)c1ccc(N=Nc2ccccc2)cc1 (configuration not stated)
inactive: [6] 97 % of control | [7] 94 % of control | [8] 97 % of control
